According to ChEMBL document CHEMBL1154323, “Bioactive scalaranes from the Thai sponge Hyrtios gumminae” (J Nat Prod, 2009):
Active and inactive are the calls of the source. The rule behind the calls is not given here.

Key:
Type in all cases: functional, cell-based
NCI-H69 [1] = experiment: Cytotoxicity against human adriamycin resistant H69 cells
KB [2] = experiment: Cytotoxicity against human KB cells
HeLa [3] = experiment: Cytotoxicity against human HeLa cells
T47D [4] = experiment: Cytotoxicity against human T47D cells
MDA-MB-231 [5] = experiment: Cytotoxicity against human MDA-MB-231 cells
[6] = Cytotoxicity against human HuCCa1 cells; details: HuCC-A1
KB [7] = experiment: Cytotoxicity against human KB cells >100 uM
NCI-H69 [8] = experiment: Cytotoxicity against human adriamycin resistant H69 cells >100 uM
HuCC-A1 = experiment: Cytotoxicity against human HuCCa1 cells at >100 uM
MDA-MB-231 [9] = experiment: Cytotoxicity against human MDA-MB-231 cells >100 uM
T47D [10] = experiment: Cytotoxicity against human T47D cells >100 uM
HeLa [11] = experiment: Cytotoxicity against human HeLa cells >100 uM

SMILES	IC50 (NCI-H69 [1]) [µM]	IC50 (KB [2]) [µM]	IC50 (HeLa [3]) [µM]	IC50 (T47D [4]) [µM]	IC50 (MDA-MB-231 [5]) [µM]	IC50 [6] [µM]	Activity (KB [7])	Activity (NCI-H69 [8])	Activity (HuCC-A1)	Activity (MDA-MB-231 [9])	Activity (T47D [10])	Activity (HeLa [11])
CC1(C)CCC[C@]2(C)[C@H]3C[C@@H](O)[C@]4(C)[C@H]5COC(=O)C5=CC[C@H]4[C@]3(C)CC[C@@H]12	57	7	23	5.2	5.9	42	–	–	–	–	–	–
CC(C)CCC[C@@H](C)[C@H]1CC[C@H]2[C@@H]3CC=C4C[C@@H](O)CC[C@]4(C)[C@H]3CC[C@]12C	–	–	–	–	–	–	inactive	inactive	inactive	inactive	inactive	inactive
CC1(C)CCC[C@]2(C)[C@H]3C[C@@H](O)[C@]4(C)C5=C(CC[C@H]4[C@]3(C)CC[C@@H]12)COC5=O	–	–	–	–	–	–	inactive	inactive	inactive	inactive	inactive	inactive
COc1cc([C@@H]2c3cc4c(cc3[C@@H](O[C@@H]3O[C@@H]5CO[C@@H](C)O[C@H]5[C@H](O)[C@H]3O)[C@H]3COC(=O)[C@H]23)OCO4)cc(OC)c1O [ETOPOSIDE]	46	0.5	0.4	0.1	0.3	5.1	–	–	–	–	–	–
CC1(C)CCC[C@]2(C)[C@H]3C[C@@H](O)[C@]4(C)C5=C(C(=O)O[C@H]5O)[C@H](O)C[C@H]4[C@]3(C)CC[C@@H]12 [HYRTIOLIDE]	–	12	22	34	26	57	–	–	–	–	–	–
CC1(C)CCC[C@]2(C)[C@H]3C[C@](C)(C=O)[C@@H](C[C@H](O)c4ccoc4)[C@]3(C)CC[C@@H]12 [HYRTIOSAL]	31	7.8	18	9.1	5.4	9.1	–	–	–	–	–	–
CC(=O)O[C@H]1C[C@H]2[C@]3(C)CC[C@H]4C(C)(C)CCC[C@]4(C)[C@H]3C[C@@H](O)[C@]2(C)c2cocc21 [SCALARAFURAN]	51	58	63	28	14	49	–	–	–	–	–	–
CO[C@@H]1c2occc2[C@@H](O)C[C@H]2[C@]3(C)CC[C@H]4C(C)(C)CCC[C@]4(C)[C@H]3C[C@@]21C [SIMILAN A]	> 125	75	125	70	58	90	–	–	–	–	–	–
